Data: patent publication US10221163B2 (priority 2015, dated 2019)
Where two headings read alike, the source gives them in different places.

Key:
[1] = system: Pseudomonas aeruginosa MB9798 vs MB9799
How it was run: (§1)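 Steps: add fixed imipenem and/or ceftazidime (usually CLSI breakpoint) and fixed AmpC-directed class A/C inhibitor to microbroth MIC wells; titrate MBL inhibitor; record concentration regaining susceptibility for each PAO1-derived strain; divide efflux+ by efflux− value.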

[2] = system: Pseudomonas aeruginosa efflux− (MB9799), IMP-1; assay type: cell-based; conditions: C, D serine β-lactamase inhibitor closely related to relebactam; for P. aeruginosa expressing IMP-1, efflux − (MB9799) MITC95: concentration restoring susceptibility to imipenem at 2 μg/mL in the presence of a class A; for Concentration of metallo-β-lactamase inhibitor which restores susceptibility of efflux − (MB9799) strain to imipenem: imipenem at 2 μg/mL, in the presence of a class A
How it was run: as §1

[3] = system: Pseudomonas aeruginosa efflux+ (MB9798), IMP-1; assay type: cell-based; set-up: Concentration of metallo-β-lactamase inhibitor which restores susceptibility of efflux + (MB9798) strain to imipenem: unit not given here; conditions: C, D serine β-lactamase inhibitor closely related to relebactam; for P. aeruginosa expressing IMP-1, efflux + (MB9798) MITC95: concentration restoring susceptibility to imipenem at 2 μg/mL in the presence of a class A; for Concentration of metallo-β-lactamase inhibitor which restores susceptibility of efflux + (MB9798) strain to imipenem: imipenem at 2 μg/mL, in the presence of a class A
How it was run: as §1

[4] = target: IMP-1 (Serratia marcescens, UniProt P52699); assay: biochemical; assay type: biochemical; conditions: fluorescence assay, CCF2-FA substrate, 2 pM enzyme, 2 hours at 25° C.; read-out: IMP-1 IC50
How it was run: (§2)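 Fluorescence assay, CCF2-FA substrate (cephalosporin core linking 7-hydroxycoumarin to fluorescein); inhibitor + MBL + substrate, 2 h, 25° C. IC50 by 4-parameter fit, semi-log plot.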

[5] = target: NDM-1 (Klebsiella pneumoniae, UniProt C7C422); assay: biochemical; assay type: biochemical; conditions: fluorescence assay, CCF2-FA substrate, 1 pM enzyme, 2 hours at 25° C.; read-out: NDM-1 IC50
How it was run: as §2

[6] = target: VIM-1 (Pseudomonas aeruginosa (strain ATCC 15692 / DSM 22644 / CIP 104116 / JCM 14847 / LMG 12228 / 1C / PRS 101 / PAO1), UniProt A0A0F7KYQ8); assay: biochemical; conditions: CCF2-FA substrate, 30 pM enzyme, 2 hours at 25° C.
How it was run: as §2

[7] = system: Serratia marcescens expressing IMP-1 (CL5741); assay type: cell-based; conditions: for Serratia marcescens expressing IMP-1 (CL5741) MITC95: with imipenem 1 μg/ml, 95% inhibition of bacterial growth; for Serratia marcescens MITC95: IMP-1 strain CL5741, with imipenem 1 μg/ml, 95% inhibition of growth
How it was run: (§3)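 Imipenem 1 μg/ml + inhibitor; MBL-expressing clinical strains in 1.1×CAMHB, inoculum from saline suspension diluted 1:100; 35° C, 22–24 h; absorbance read-out.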

[8] = system: Klebsiella pneumoniae expressing VIM-1 (IHMA599644); assay type: cell-based; conditions: for Klebsiella pneumoniae expressing VIM-1 (IHMA599644) MITC95: with imipenem 1 μg/ml, 95% inhibition of bacterial growth; for Klebsiella pneumoniae MITC95: VIM-1 strain IHMA599644, with imipenem 1 μg/ml, 95% inhibition of growth
How it was run: as §3

[9] = system: Escherichia coli expressing NDM-1 (CLB30005, CLB30016); assay type: cell-based; conditions: with imipenem 1 μg/ml; for Escherichia coli expressing NDM-1 (CLB30016) MITC95: 95% inhibition of bacterial growth; for Escherichia coli MITC95: NDM-1 strain, 95% inhibition of growth
How it was run: as §3

[10] = ratio MITC95 PA_9798/MITC95 PA_9799
[11] = fold difference between efflux+ (MB9798) and efflux− (MB9799) strains, imipenem at 2 μg/mL
[12] = fluorescence assay, read-out: VIM-1 IC50

NDM-1, sequence (C7C422 whole entry, looked up, species assumed): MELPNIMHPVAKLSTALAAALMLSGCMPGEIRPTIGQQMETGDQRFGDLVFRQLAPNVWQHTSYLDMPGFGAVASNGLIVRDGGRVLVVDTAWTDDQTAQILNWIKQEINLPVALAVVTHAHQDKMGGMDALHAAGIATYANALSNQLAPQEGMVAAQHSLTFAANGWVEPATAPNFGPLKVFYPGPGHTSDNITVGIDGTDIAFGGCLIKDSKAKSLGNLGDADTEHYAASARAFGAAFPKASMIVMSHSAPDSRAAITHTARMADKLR
IMP-1, sequence (P52699 whole entry, looked up, species assumed): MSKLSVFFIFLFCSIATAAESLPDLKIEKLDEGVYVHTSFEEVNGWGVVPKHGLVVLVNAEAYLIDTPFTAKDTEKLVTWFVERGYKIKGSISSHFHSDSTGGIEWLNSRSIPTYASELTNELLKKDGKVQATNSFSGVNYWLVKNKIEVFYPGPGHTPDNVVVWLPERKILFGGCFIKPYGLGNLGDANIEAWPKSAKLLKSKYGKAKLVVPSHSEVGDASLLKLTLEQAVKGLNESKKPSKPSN

Row | SMILES | Efflux ratio [1, 10] | P. aeruginosa expressing IMP-1, efflux − (MB9799) MITC95 [2] [µM] | P. aeruginosa expressing IMP-1, efflux + (MB9798) MITC95 [3] [µM] | IC50 [4] [nM] | IC50 [5] [nM] | IC50 ([6]; VIM-1 IC50, fluorescence assay) [nM] | Serratia marcescens expressing IMP-1 (CL5741) MITC95 [7] [µM] | Klebsiella pneumoniae expressing VIM-1 (IHMA599644) MITC95 [8] [µM] | Escherichia coli expressing NDM-1 (CLB30016) MITC95 [9] [µM] | Serratia marcescens MITC95 [7] [µM] | Klebsiella pneumoniae MITC95 [8] [µM] | Escherichia coli MITC95 [9] [µM] | Efflux ratio [1, 11] | Concentration of metallo-β-lactamase inhibitor which restores susceptibility of efflux − (MB9799) strain to imipenem [2] | Concentration of metallo-β-lactamase inhibitor which restores susceptibility of efflux + (MB9798) strain to imipenem [3] | IC50 [6, 12] [nM]
1 | C[C@H](N)CNS(=O)(=O)c1ccc(-c2cccc3sc(N)nc23)c(-c2nnn[nH]2)c1S(N)(=O)=O.O=CO [Example 127, (S)-4-(2-aminobenzo[d]thiazol-4-yl)-N1-(2-aminopropyl)-3-(1H-tetrazol-5-yl)benzene-1,2-disulfonamide, formate salt] | 1.00 | 1.563 | 1.563 | 0.322 | 0.0421 | 0.236 | 1.563 | 3.125 | 3.125 | – | – | – | – | – | – | –
2 | NCc1nc2c(-c3ccc(S(=O)(=O)NC[C@@H](O)CN)c(S(N)(=O)=O)c3-c3nn[nH]n3)cccc2[nH]1 [Example 305, (S)—N1-(3-amino-2-hydroxypropyl)-4-(2-(aminomethyl)-1H-benzo[d]imidazole-4-yl)-3-(2H-tetrazol-5-yl)benzene-1,2-disulfonamide] | 1.00 | 0.7813 | 0.7813 | 2.06 | 0.136 | 0.175 | – | – | – | 1.172 | 1.563 | 1.172 | – | – | – | –
3 | Nc1nc2c(-c3ccc(S(=O)(=O)N[C@@H]4CNC[C@H]4N)c(S(N)(=O)=O)c3-c3nn[nH]n3)cccc2[nH]1 [Example 424] | – | – | – | 0.814 | 0.0869 | 0.301 | – | – | – | 1.563 | 1.563 | 0.7813 | 1.00 | 1.563 | 1.563 | –
4 | CN(C)CCCN(C)S(=O)(=O)c1ccc(-c2cccc3sc(N)nc23)c(-c2nnn[nH]2)c1S(N)(=O)=O [Example 52, 4-(2-amino-1,3-benzothiazol-4-yl)-N1-[3-(dimethylamino)propyl]-N~1~-methyl-3-(1H-tetrazol-5-yl)benzene-1,2-disulfonamide] | 2.00 | 3.125 | 6.25 | 5.94 | 15.3 | – | 3.125 | 50 | 12.5 | – | – | – | – | – | – | 25.3
5 | Nc1nc2c(-c3ccc(S(=O)(=O)N[C@@]4(CO)CCNC4)c(S(N)(=O)=O)c3-c3nnn[nH]3)cccc2[nH]1 [Example 176, (S)-4-(2-amino-1H-benzo[d]imidazol-4-yl)-N1-(3-(hydroxymethyl)pyrrolidin-3-yl)-3-(1H-tetrazol-5-yl)benzene-1,2-disulfonamide] | 1.00 | 0.7813 | 0.7813 | 0.728 | 0.0524 | – | 0.7813 | 1.563 | 0.3906 | – | – | – | – | – | – | 0.192
6 | Cc1ccc(-c2ccc(S(N)(=O)=O)c(S(N)(=O)=O)c2-c2nn[nH]n2)c2nc(N)sc12 [Example 6, 4-(2-amino-7-methylbenzo[d]thiazol-4-yl)-3-(2H-tetrazol-5-yl)benzene-1,2-disulfonamide] | 1.00 | 1.563 | 1.563 | 0.0648 | 0.0269 | – | 1.563 | 6.25 | 6.25 | – | – | – | – | – | – | 0.0915
7 | NS(=O)(=O)c1c(S(=O)(=O)N[C@@H]2CCNC2)ccc(-c2cccc(-c3nc[nH]n3)c2)c1-c1nn[nH]n1 [Example 225, (R)-N4-(pyrrolidin-3-yl)-2-(2H-tetrazol-5-yl)-3′-(1H-1,2,4-triazol-3-yl)-[1,1′-biphenyl]-3,4-disulfonamide] | 1.00 | 1.563 | 1.563 | 0.11 | 0.0256 | – | 1.563 | 3.125 | 3.125 | – | – | – | – | – | – | 0.0561
8 | Cc1ccc(-c2ccc(S(=O)(=O)N[C@@H]3CCNC3)c(S(N)(=O)=O)c2-c2nn[nH]n2)c2nc(N)[nH]c12 [Example 285, (R)-4-(2-amino-7-methyl-1H-benzo[d]imidazol-4-yl)-N1-(pyrrolidin-3-yl)-3-(2H-tetrazol-5-yl)benzene-1,2-disulfonamide] | 1.00 | 0.3906 | 0.3906 | 0.318 | 0.0295 | 0.0916 | – | – | – | 0.7813 | 0.7813 | 0.7813 | – | – | – | –
9 | Nc1ccc(-c2ccc(S(=O)(=O)NCC3(O)CNC3)c(S(N)(=O)=O)c2-c2nn[nH]n2)cn1 [Example 495, 4-(6-aminopyridin-3-yl)-N1-((3-hydroxyazetidin-3-yl)methyl)-3-(2H-tetrazol-5-yl)benzene-1,2-disulfonamide] | – | – | – | 0.328 | 0.215 | – | – | – | – | 0.7813 | 1.563 | 0.1953 | 1.00 | 0.7813 | 0.7813 | 0.301
10 | Nc1ccc(-c2ccc(S(=O)(=O)NC[C@]3(N)CCNC3)c(S(N)(=O)=O)c2-c2nn[nH]n2)cn1 [Example 368, (S)-4-(6-aminopyridin-3-yl)-N1-((3-aminopyrrolidin-3-yl)methyl)-3-(2H -tetrazol-5-yl)benzene-1,2-disulfonamide] | 1.00 | 1.563 | 1.563 | 0.304 | 0.203 | 0.253 | – | – | – | 0.7813 | 3.125 | 0.7813 | – | – | – | –
